Like-named read-outs stand apart in the source and are kept apart here.

Our source for the IC50 values is patent US5332811A, “Etopside analogs” (priority 1991, dated 1994).

In one assay the test system is KB cells. As to the kind of experiment: Cytotoxicity: 50% reduction in cell number of KB cells after three day incubation. The conditions noted are these: Homo sapiens, 72 h, read-out: Cytotoxicity ID50 KB. In kind it is cell-based. As to the method:
(§1) The compounds of the present invention were tested for their degree of inhibitory activity on human type II DNA topoisomerase, their effect on the formation of protein-linked DNA breakage, and their cytotoxicity. The inhibitory activity for compounds of the present invention correlated with the ability of the compounds to cause DNA strand breakage. […] For a description of the assays used with respect to the compounds listed in Tables 1 to 5 see Thurston, L.S., Irie, H., Tani, S., Han, F. S., Liu, Z. C., Cheng, Y.C., and Lee, K. H., Antitumor Agents 78. Inhibition of Human DNA Topoisomerase II by Podophyllotoxin and Peltatin Analogues, J. Med. Chem. 29, 1547 (1986), and the references cited therein, herein incorporated by reference.
in cell number after three day incubation.

The target in assay [1] is Human DNA topoisomerase II. As to the kind of experiment: DNA topoisomerase II assay (P4 unknotting reaction). In kind it is biochemical. The settings on record: based on degree of inhibition at 10, 25, 50 and 100 μM, read-out: Inhibition of DNA Topoisomerase II Activity ID50. The procedure:
as §1, with “cytotoxicity.” for “cytotoxicity. The inhibitory activity for compounds of the present invention correlated with the ability of the compounds to cause DNA strand breakage.”
Human DNA topoisomerase II was isolated from peripheral blast cells of a patient with acute leukemia. The isolation procedure is described in Thurston, L., Imakura, Y., Haruna, M., Li, Z. C., Liu, S. Y., and Lee, K. H., J. Med. Chem., 31, […] (1988) and is a partial combination of the procedure described in Goto, T., Laiapia, P. and Wang, J., J. Biol. Chem., 259, 10422 (1984) and Halligan, B., Edwards, K., and Liu, L., J. Biol. Chem., 260, 2475 (1985) which are herein specifically incorporated by reference.
Drugs were dissolved in Me2 SO at a concentration of 20 mM as the stock solution and diluted before use with water to the desired concentration of each drug.
The P4 unknotting reaction was a modification of the procedure described by Hseih, T., J. Biol. Chem., 258, 8413 (1985), which is herein specifically incorporated by reference.
The reaction mixture (20 μL), which contained 50 mM HEPES, pH 7.0, 50 mM KCI, 100 mM NaCl, 0.1 mM EDTA, 10 mM MgCl2, 1.0 mM ATP, 50 μg/mL bovine serum albumin, 0.4 μg P4knotted DNA, and enzyme, was incubated with or without drugs.
The reaction mixture was incubated at 37° C. for 30 min and terminated by adding 5.0 μl of a stop solution (2% sodium dodecyl sulfate, 20% glycerol, 0.05% bromophenol blue). These samples were loaded onto a 1% agarose gel and electrophoresed at 55 V overnight with an electrophoresis buffer that contained 90 mM Tris-boric acid, pH 8.3, and 2.5 mM EDTA. At completion, the gel was stained in 0.5 μg/mL of ethidium bromide. Then a photograph was taken of the DNA bands visualized with fluorescence induced by a long-wavelength UV lamp. […]

Setting [2] is: Table 4, KB cells, three day incubation.
Setting [3] is: Table 5, KB cells, three day incubation.

Take `COc1cc([C@@H]2c3cc4c(cc3[C@@H](NC(=O)c3ccccc3O)[C@H]3COC(=O)[C@H]23)OCO4)cc(OC)c1O` [Example 35, 4'-O-Demethyl-4β-[(2-hydroxylbenzoyl)amino]-4-desoxypodophyllotoxin]: the IC50 in the assay with KB cells (setting [2]) was less than 1 µM; in assay [1] (Table 4), 50 µM.
Regarding `COc1cc([C@@H]2c3cc4c(cc3[C@@H](NC(=O)c3ccc(F)cc3)[C@H]3COC(=O)[C@H]23)OCO4)cc(OC)c1O` [Example 36, 4'-O-Demethyl-4β-[(4"-fluorobenzoyl)amino]-4-desoxypodophyllotoxin], the IC50 in the assay on KB cells (setting [2]) was determined as 0.34 µM; in assay [1] (Table 4) it was 25 µM.
The corresponding values for `COc1cc([C@@H]2c3cc4c(cc3[C@@H](NC(=O)c3ccc(OC(C)=O)cc3)[C@H]3COC(=O)[C@H]23)OCO4)cc(OC)c1O` [Example 37, 4'-O-Demethyl-4β-[(4-acetoxybenoyl)amino]-4-desoxypodophyllotoxin] are 0.61 µM and 25 µM.
The corresponding values for `COc1cc([C@@H]2c3cc4c(cc3[C@@H](NC(=O)c3ccc(C(C)=O)cc3)[C@H]3COC(=O)[C@H]23)OCO4)cc(OC)c1O` [Example 38] are 1 µM and 50 µM.
The corresponding values for `COc1cc([C@@H]2c3cc4c(cc3[C@@H](NC(=O)c3cccc(C#N)c3)[C@H]3COC(=O)[C@H]23)OCO4)cc(OC)c1O` [Example 39, 4'-O-Demethyl-4β-[(3"-cyanobenzoyl)amino]-4-desoxypodophyllotoxin] are 1 µM and 50 µM.
For the molecule `COc1cc([C@@H]2c3cc4c(cc3[C@@H](NC(=O)c3ccc(C#N)cc3)[C@H]3COC(=O)[C@H]23)OCO4)cc(OC)c1O` [Example 40, 4'-O-Demethyl-4β-[(4"-cyanobenzoyl)amino]-4-desoxypodophyllotoxin], the IC50 in the assay with KB cells (setting [2]) is 0.1 µM; in assay [1] (Table 4), 25 µM.
Consider `COc1cc([C@@H]2c3cc4c(cc3[C@@H](NC(=O)c3cccc([N+](=O)[O-])c3)[C@H]3COC(=O)[C@H]23)OCO4)cc(OC)c1O` [Example 41, 4'-O-Demethyl-4β-[(3"-nitrobenzoyl)amino]-4-desoxypodophyllotoxin], for which the IC50 with KB cells (setting [2]) worked out at 0.33 µM; in assay [1] (Table 4), 10 µM.
For `COc1cc([C@@H]2c3cc4c(cc3[C@@H](NC(=O)c3cccc(N)c3)[C@H]3COC(=O)[C@H]23)OCO4)cc(OC)c1O` [Example 42, 4'-O-Demethyl-4β-[(3"-aminobenzoyl)amino]-4-desoxypodophyllotoxin] the same measures were 0.42 µM and 25 µM.
With `COC1=CC([C@@H]2c3cc4c(cc3[C@@H](Nc3ccc(F)cc3)[C@H]3COC(=O)[C@@H]32)OCO4)=CC(=O)C1=O` [Example 43, 3',4'-Didemethoxy-3',4'-dioxo-4β-(4"-fluoroanilino)-4-desoxypodophyllotoxin], the IC50 in the assay with KB cells (setting [3]) was more than 2.1 µM; in assay [1] (Table 5) it was 25 µM.
Turning to `COC1=CC([C@@H]2c3cc4c(cc3[C@@H](Nc3ccc([N+](=O)[O-])cc3)[C@H]3COC(=O)[C@@H]32)OCO4)=CC(=O)C1=O` [Example 44, 3',4'-Didemethoxy-3',4'-dioxo-4β-(4"-nitroanilino)-4-desoxypodophyllotoxin], the IC50 in the assay on KB cells (KB) turned out to be 1.5 µM; in assay [1] (Table 5) it was 10 µM.
With `CCOC(=O)c1ccc(N[C@@H]2c3cc4c(cc3[C@@H](C3=CC(=O)C(=O)C(OC)=C3)[C@H]3C(=O)OC[C@@H]32)OCO4)cc1` [Example 45, 3',4'-Didemethoxy-3',4'-dioxo-4β-[(4"-ethoxycarbonyl)anilino]-4-desoxypodophyllotoxin], the IC50 with KB cells (setting [3]) amounted to 1.1 µM; in assay [1] (Table 5), 25 µM.
